IC50 data for 33 molecules are collected here from patent US6967196B1, “Sulfonamide compounds and uses thereof” (Bristol-Myers Squibb Company, priority 1999, dated 2005).

Each structure is given as a SMILES string. pIC50: −log10 of the molar value. Structures can show the parent of a compound that is named as a salt.

One assay has as its system amyloid β production in transfected H4 (human neuroglioma) cells stably expressing APP constructs. The experiment in a line: In vitro cell-based assay of inhibitors of amyloid β production (ELISA). The note with it: Homo sapiens, 16 h, transfected H4 cells stably expressing APP; approximately 16 hours incubation; amyloid β in medium by ELISA; read-out: ACTIVITY (IC50, inhibition of amyloid β production). Put shortly:
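Sandwich ELISA read-out: Aβ in conditioned medium captured via C-terminal epitope mAb, detected with N-terminus-specific rabbit polyclonal, quantified from a standard curve. Compounds 10-100 μM, ~16 h exposure. Active = ≥50% inhibition vs control without significant cytotoxicity; dose-response follows.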
In general terms: An ELISA detects its analyte on a solid surface through an enzyme-linked reagent.
In the case of `O=C(c1ccc(F)cc1)N1CCCCC1CCOc1ccccc1CN(c1cc(F)ccc1F)S(=O)(=O)c1ccc(Cl)cc1` (stereo not drawn) [Example 946, 4-chloro-N-(2,5-difluorophenyl)-N-(2-{2-[1-(4-fluorobenzoyl)-2-piperidinyl]ethoxy}benzyl)benzenesulfonamide], the pIC50 is < 6.30.
Regarding `CC(C)CCCN(Cc1ccccc1OCCCN1CCCCC1)S(=O)(=O)c1ccc(Cl)cc1` [Example 951, 4-chloro-N-(4-methylpentyl)-N-{2-[3-(1-piperidinyl)propoxy]benzyl}benzenesulfonamide hydrochloride], the pIC50 was < 6.30.
Same read-out and setting: as for `CSc1cccc(N(Cc2ccccc2OCCCN2CCCCC2)S(=O)(=O)c2ccc(Cl)cc2)c1` [Example 952, 4-chloro-N-[3-(methylsulfanyl)phenyl]N-{2-[3-(1-piperidinyl)propoxy]benzyl}benzenesulfonamide hydrochloride], the figure is < 6.30; as for `O=S(=O)(c1ccc(Cl)cc1)N(Cc1ccccc1OCCCN1CCCCC1)[C@H]1CC2CCC1C2` (stereo partly drawn) [Example 954, N-[(2S)-bicyclo[2.2.1]hept-2-yl]-4-chloro-N-{2-[3-(1-piperidinyl)propoxy]benzyl}benzenesulfonamide hydrochloride], < 6.30.
For `Cc1ccc(OCCCN2CCCCC2)c(CN(c2cc(F)ccc2F)S(=O)(=O)c2ccc(Cl)cc2)c1` [Example 957, 4-chloro-N-(2,5-difluorophenyl)-N-{5-methyl-2-[3-(1-piperidinyl)propoxy]benzyl}benzenesulfonamide hydrochloride], the pIC50 was < 6.30.
On the same count and under the same terms, for `CN1CCCC1CCOc1ccccc1CN(c1ccccc1)S(=O)(=O)c1ccc(Cl)cc1` (stereo not drawn) [Example 962, 4-chloro-N-{2-[2-(1-methyl-2-pyrrolidinyl)ethoxy]benzyl}-N-phenylbenzenesulfonamide hydrochloride] the value was < 6.30; for `O=S(=O)(c1ccc(Cl)cc1)N(Cc1ccccc1OCCC1CCCN1)c1ccccc1` (stereo not drawn) [Example 963, 4-chloro-N-phenyl-N-{2-[2-(2-pyrrolidinyl)ethoxy]benzyl}benzenesulfonamide hydrochloride], < 6.30.
On to `O=S(=O)(c1ccc(Cl)cc1)N(Cc1cc(Cl)ccc1OCCCN1CCCCC1)c1ccccc1` [Example 964, 4-chloro-N-{5-chloro-2-[3-(1-piperidinyl)propoxy]benzyl}-N-phenylbenzenesulfonamide hydrochloride], for which the pIC50 is < 6.30.
In the case of `CC1(O)CCN(CCCOc2ccccc2CN(c2ccccc2)S(=O)(=O)c2ccc(Cl)cc2)CC1` [Example 965, 4-chloro-N-{2-[3-(4-hydroxy-4-methyl-1-piperidinyl)propoxy]benzyl}-N-phenylbenzenesulfonamide hydrochloride], the pIC50 was < 6.30.
Same read-out and setting: as for `O=S(=O)(c1ccc(Cl)cc1)N(Cc1ccncc1)Cc1ccccc1OCCCN1CCCCC1` [Example 967, 4-chloro-N-{2-[3-(1-piperidinyl)propoxy]benzyl}-N-(4-pyridinylmethyl)benzenesulfonamide hydrochloride], the figure is < 6.30; as for `O=C1CCN(CCCOc2ccccc2CN(c2ccccc2)S(=O)(=O)c2ccc(Cl)cc2)CC1` [Example 968, 4-chloro-N-{2-[3-(4-oxo-1-piperidinyl)propoxy]benzyl}-N-phenylbenzenesulfonamide hydrochloride], < 6.30.
On the same count and under the same terms, as for `O=S(=O)(c1ccc(Cl)cc1)N(CCc1ccccc1OCCCN1CCCCC1)c1ccccc1` [Example 972, 4-chloro-N-phenyl-N-(2-{2-[3-(1-piperidinyl)propoxy]phenyl}ethyl)benzenesulfonamide hydrochloride], the figure is < 6.30.
For `O=S(=O)(c1ccc(Cl)cc1)N(Cc1ccccc1C#CCCN1CCCCC1)c1ccccc1` [Example 973, 4-chloro-N-phenyl-N-{2-[4-(1-piperidinyl)-1-butynyl]benzyl}benzenesulfonamide], the pIC50 is < 6.30.
On the same count and under the same terms, for `O=S(=O)(c1ccc(Cl)cc1)N(Cc1ccccc1OCCCN1CCCCC1)Cc1c(F)c(F)c(F)c(F)c1F` [Example 974, 4-chloro-N-(2,3,4,5,6-pentafluorobenzyl)-N-{2-[3-(1-piperidinyl)propoxy]benzyl}benzenesulfonamide hydrochloride] the value was < 6.30.
For `O=S(=O)(c1ccc(Cl)cc1)N(Cc1cc(Cl)ccc1O)c1ccccc1` [Example 975, 4-chloro-N-(5-chloro-2-hydroxybenzyl)-N-phenylbenzenesulfonamide], the pIC50 is < 6.30.
Regarding `O=S(=O)(c1ccc(Cl)cc1)N(Cc1ccccc1OCCCCCN1CCCCC1)c1ccccc1` [Example 976, 4-chloro-N-phenyl-N-(2-{[5-(1-piperidinyl)pentyl]oxy}benzyl)benzenesulfonamide hydrochloride], the pIC50 was < 6.30.
As to `O=S(=O)(c1ccc(Cl)cc1)N(Cc1ccccc1OCCCCN1CCCCC1)c1ccccc1` [Example 977, 4-chloro-N-phenyl-N-{2-[4-(1-piperidinyl)butoxy]benzyl}benzenesulfonamide hydrochloride], the negative logarithm of the IC50 (pIC50) was < 6.30.
On the same count and under the same terms, as for `O=S(=O)(c1ccc(Cl)cc1)N(Cc1ccccc1CCCCCN1CCCCC1)c1ccccc1` [Example 978, 4-chloro-N-phenyl-N-{2-[5-(1-piperidinyl)pentyl]benzyl}benzenesulfonamide hydrochloride], the figure is < 6.30; as for `O=S(=O)(c1ccc(Cl)cc1)N(Cc1ccccc1OCCCNC1CC1)c1ccccc1` [Example 979, 4-chloro-N-{2-[3-(cyclopropylamino)propoxy]benzyl}-N-phenylbenzenesulfonamide hydrochloride], < 6.30.
Take `O=S(=O)(c1ccc(Cl)cc1)N(Cc1ccccc1OCCCSc1ccccc1)c1cc(F)ccc1F` [Example 982, 4-chloro-N-(2,5-difluorophenyl)-N-{2-[3-(phenylsulfanyl)propoxy]benzyl}benzenesulfonamide]: the pIC50 is < 6.30.
Still for that read-out and setting: for `C=CCN(Cc1ccccc1OCCCN1CCCCC1)S(=O)(=O)c1ccc(Cl)cc1` [Example 985, N-allyl-4-chloro-N-{2-[3-(1-piperidinyl)propoxy]benzyl}benzenesulfonamide hydrochloride] the value was < 6.30.
Same read-out and setting: for `O=S(=O)(c1ccc(Cl)cc1)N(Cc1ccccc1OCCCN1CCCCC1)C1CCOCC1` [Example 986, 4-chloro-N-{2-[3-(1-piperidinyl)propoxy]benzyl}-N-tetrahydro-2H-pyran-4-ylbenzenesulfonamide hydrochloride] the value was < 6.30.
With `O=S(=O)(c1ccc(Cl)cc1)N(Cc1ccccc1OCCCN1CCCCC1)c1ccc(Br)cc1` [Example 988, N-(4-bromophenyl)-4-chloro-N-{2-[3-(1-piperidinyl)propoxy]benzyl}benzenesulfonamide hydrochloride], the pIC50 is < 6.30.
The same measure, in the same setting: for `O=S(=O)(c1ccc(Cl)cc1)N(Cc1cc(Cl)ccc1C#CCCN1CCCCC1)c1ccccc1` [Example 990, 4-chloro-N-{5-chloro-2-[4-(1-piperidinyl)-1-butynyl]benzyl}-N-phenylbenzenesulfonamide hydrochloride] the value was < 6.30.

Still in this assay, the particulars now being: transfected H4 cells stably expressing APP; approximately 16 hours incubation; amyloid β in medium by ELISA; hydrochloride; read-out: ACTIVITY (IC50, inhibition of amyloid β production).
Turning to `CCC[C@@H](C)N(Cc1ccccc1OCCCN1CCCCC1)S(=O)(=O)c1ccc(Cl)cc1` [Example 980, 4-chloro-N-[(1R)-1-methylbutyl]-N-{2-[3-(1-piperidinyl)propoxy]benzyl}benzenesulfonamide hydrochloride], the pIC50 was < 6.30.

The same assay, now with this note: transfected H4 cells stably expressing APP; approximately 16 hours incubation; amyloid β in medium by ELISA; read-out: ACTIVITY (IC50, inhibition of amyloid β production).
Take `O=S1(=O)c2ccc(Cl)cc2-c2ccccc2N1Cc1ccccc1OCCCN1CCCCC1` [Example 948, 2-chloro-5-{2-[3-(1-piperidinyl)propoxy]benzyl}-6H-dibenzo]c,e][1,2]thiazine 5,5-dioxide hydrochloride]: the pIC50 is < 6.30.
Still for that read-out and setting: for `C=C(C)CN(Cc1ccccc1OCCCN1CCCCC1)S(=O)(=O)c1ccc(Cl)cc1` [Example 955, 4-chloro-N-(2-methyl-2-propenyl)-N-{2-[3-(1-piperidinyl)propoxy]benzyl}benzenesulfonamide hydrochoride] the value was < 6.30; for `O=S(=O)(c1ccc(Cl)cc1)N(CCc1cccc(OCCCN2CCCCC2)c1)c1ccccc1` [Example 956, 4-chloro-N-phenyl-N-(2-{3-[3-(1-piperidinyl)propoxy]phenyl}ethyl)benzeneslfonamide hydrochloride], < 6.30.
`CN(CCCOc1ccccc1CN(c1cc(F)ccc1F)S(=O)(=O)c1ccc(Cl)cc1)C(=O)c1cc([N+](=O)[O-])cc([N+](=O)[O-])c1` [Example 958, N-{3-[2-({[(4-chlorophenyl)sulfonyl]-2,5-difluoroanilino}methyl)phenoxy]propyl}-N-methyl-3,5-dinitrobenzamide]: the pIC50 is < 6.30.
`O=S(=O)(c1ccc(Cl)cc1)N(Cc1ccccc1OCCCN1CCCCC1)[C@H]1CC2CCC1C2` (stereo partly drawn) [Example 969, N-{(2S)-bicyclo[2.2.1]hept-2-yl]-4-chloro-N-{2-[3-(1-piperidinyl)propoxy]benzyl}benzenesulfonamide hydrochloride]: the pIC50 is < 6.30.
As for `O=S(=O)(c1ccc(Cl)cc1)N(Cc1ccccc1CCCCN1CCCCC1)c1ccccc1` [Example 981, 4-chloro-N-phenyl-N-{2-[4-(1-piperdinyl)butyl]benzyl}benzenesulfonamide hydrochloride], the pIC50 is < 6.30.
On the same count and under the same terms, as for `O=S(=O)(c1ccc(Cl)cc1)N(Cc1ccccc1OCCCN1CCCCC1)CC1CC1` [Example 984, 4-chloro-N-(cyclopropylmethyl-N-{2-[3-(1-piperidinyl)propoxy]benzyl}benzenesulfonamide hydrochloride], the figure is < 6.30.
On the same count and under the same terms, for `COC(=O)[C@H](c1ccccc1)N(c1cc(F)ccc1F)S(=O)(=O)c1ccc(Cl)cc1` [Example 987, methyl (2S)-1-{[(4-chlorophenyl)sulfonyl]-2,5-difluoroanilino}(phenyl)ethanoate] the value was < 6.30.

A word on the pIC50: it is −log10 of the IC50, conventionally taken in molar units.
